Assay results taken from patent publication US20230181562A1, “USE OF A MULTIFUNCTIONAL LIGAND FOR TREATING DRY EYES, MEIBOMIAN GLAND DYSFUNCTIONS AND LACRIMAL GLAND DYSFUNCTIONS” (H4 ORPHAN PHARMA, priority 2020, published 2023).
Like-named read-outs stand apart in the source and are kept apart here. Each block holds one compound with its values, some of them ahead of it. Where no end group is shown, it is not given here.

Experiments:
non-mutated CFTR = target: T1, non-mutated CFTR (Homo sapiens, UniProt P13569); experiment: Ussing chamber short-circuit current (ion transport via CFTR); type: cell-based; details: for effect of Inh172 on cell potential: CFTR inh172 10 μM; for short circuit current differential after addition of tritoqualine: tritoqualine 10 μM
T1 construct: host or cells: human epithelial cells (called glandular / lacrimal gland epithelial cells) grown on Snapwell filters
T1 sequence (P13569 whole entry, change not shown): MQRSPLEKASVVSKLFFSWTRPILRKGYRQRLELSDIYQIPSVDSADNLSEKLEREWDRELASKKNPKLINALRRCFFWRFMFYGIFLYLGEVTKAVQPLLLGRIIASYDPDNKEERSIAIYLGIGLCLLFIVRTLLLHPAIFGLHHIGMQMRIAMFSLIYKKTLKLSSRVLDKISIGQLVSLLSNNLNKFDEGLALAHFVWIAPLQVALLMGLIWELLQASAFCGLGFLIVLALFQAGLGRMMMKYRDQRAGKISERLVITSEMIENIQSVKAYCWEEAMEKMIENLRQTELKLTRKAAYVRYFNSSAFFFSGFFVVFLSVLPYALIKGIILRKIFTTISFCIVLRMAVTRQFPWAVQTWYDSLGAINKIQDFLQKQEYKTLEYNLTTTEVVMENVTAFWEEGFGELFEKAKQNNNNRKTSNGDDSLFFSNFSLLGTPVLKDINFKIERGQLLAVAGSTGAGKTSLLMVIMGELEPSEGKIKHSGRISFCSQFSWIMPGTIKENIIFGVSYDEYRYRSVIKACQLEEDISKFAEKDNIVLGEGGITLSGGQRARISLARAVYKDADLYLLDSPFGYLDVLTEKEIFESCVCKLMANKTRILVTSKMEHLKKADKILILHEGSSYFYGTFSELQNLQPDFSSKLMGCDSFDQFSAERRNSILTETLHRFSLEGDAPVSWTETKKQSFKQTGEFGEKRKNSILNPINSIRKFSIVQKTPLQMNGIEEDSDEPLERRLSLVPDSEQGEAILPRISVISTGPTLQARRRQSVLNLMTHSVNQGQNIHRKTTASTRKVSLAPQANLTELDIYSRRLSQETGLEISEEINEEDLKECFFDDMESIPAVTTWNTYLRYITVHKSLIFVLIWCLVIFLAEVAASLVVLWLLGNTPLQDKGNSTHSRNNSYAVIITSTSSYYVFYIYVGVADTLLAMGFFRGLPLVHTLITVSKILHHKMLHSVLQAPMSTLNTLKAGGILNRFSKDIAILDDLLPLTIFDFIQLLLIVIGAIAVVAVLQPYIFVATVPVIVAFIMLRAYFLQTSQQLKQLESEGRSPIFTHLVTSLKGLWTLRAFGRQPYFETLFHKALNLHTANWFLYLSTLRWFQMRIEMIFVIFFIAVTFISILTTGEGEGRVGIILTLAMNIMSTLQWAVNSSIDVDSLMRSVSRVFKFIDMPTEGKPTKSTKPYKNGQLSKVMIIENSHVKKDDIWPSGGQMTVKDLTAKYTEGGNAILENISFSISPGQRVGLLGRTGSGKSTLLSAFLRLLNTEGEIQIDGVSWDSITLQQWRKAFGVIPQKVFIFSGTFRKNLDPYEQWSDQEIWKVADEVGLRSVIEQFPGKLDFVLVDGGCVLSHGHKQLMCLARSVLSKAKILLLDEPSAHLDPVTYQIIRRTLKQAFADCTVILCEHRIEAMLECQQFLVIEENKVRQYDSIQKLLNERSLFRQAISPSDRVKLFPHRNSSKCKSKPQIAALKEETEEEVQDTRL
Description: To investigate this action on CFTR modulation, the inventors used the Ussing chamber method, invented by the Dane Hans H. Ussing in the late 1950s. This technique makes it possible to study ionic exchanges across an epithelium, as it allows the tissue of interest to be kept alive for a few hours under controlled conditions of temperature and medium. The positioning of the tissue between two half-chambers makes it possible to define an apical compartment (corresponding to the lumen of the organ) and a basolateral compartment (corresponding to the blood compartment) and to investigate exchanges between these two compartments via the tissue.
This technique is used as a routine and is particularly well adapted for a pharmacological approach to ionic transport and to search for molecules of therapeutic interest in the context of ionic secretions of epithelial cells. It consists in measuring the transepithelial current (known as the short-circuit current and noted Ise). Ise is expressed in amperes to unit area of the epithelium (Ise in μA/cm^2). The cells are grown on a porous filter for 10 to 15 days at the liquid-liquid interface and then air-liquid interface in order to mimic conditions close to in vivo. The transepithelial resistance is measured regularly when culturing. The higher this resistance is (several hundred ohms), the more the epithelial tissue is junctive, polarised and therefore tight. At the air (apical side)-liquid (basolateral side) interface the epithelial cells polarise and form a tight mat which can be investigated with the Ussing chamber technique. A system with 6 Physiology Instrument® cuvettes allowing 6 experiments in parallel has been used.
The inventors have used USSING chambers to analyse the activity of tritoqualine on CFTR of glandular epithelial cells.
Typical protocols used for human epithelial cells expressing non-mutated CFTR:
Measurement of short circuit current in the presence of amiloride (ENaC channel inhibitor, 100 μM) followed by addition of 10 μM of the tritoqualine molecule and then addition of CFTR inh172 (10 μM, CFTR inhibitor) followed by addition of UTP (100 μM, validates the experiment by activating the calcium-sensitive Cl transport).
Measurement of short circuit current in the presence of amiloride (100 μM) and forskolin (0.05 μM activator of intracellular cAMP) then addition of 10 μM of the tritoqualine molecule then addition of CFTRinh172 (10 μM) then addition of UTP (100 μM).
Measurement of the short circuit current in the presence of CFTR Inh172 (10 μM) then addition of tritoqualine and forskolin (0.05 μM) then addition of UTP.
The inventors have prepared a 100 μM stock solution in DMSO. The compounds have been aliquoted per 100 μL and stored at −20° C.
Tritoqualine has been added to USSING cells at a dose of 10 μM in non-mutated cells FIG. 5.

basophils = experiment: Flow CAST basophil degranulation (CD63+/CCR3+ flow cytometry); type: cell-based, human
Description: The inventors have used the Kit-Flow CAST (www.buhlmannlabs.ch/products-solutions/cellular-allergy/flow-cast/) to test the action of tritoqualine on the inhibition of basophil degranulation. The marker for degranulation is CD63. Upon basophil activation, CD63 markers bound to intracytoplasmic granules will fuse with the plasma membrane. They are then expressed on the cell surface: activated basophils thereby become CD63+. Further to CD63, another marker specific to basophils makes it possible to better target them, it is CCR3 (chemokine receptor 3). The latter is always expressed by this cell type. Thus, the degranulation of basophils is identified in the flow cytometry window as CD63+ and CCR3+.
In a first step 2 patients have been sampled. substance P has been tested at a dose of 10 μmoles.
After 30 minutes, degranulation in each of the tubes is around 7% as with the negative control.

[1] = cited from earlier work
NK 1 receptor = target: T2, NK 1 receptor (Homo sapiens, UniProt P25103); experiment: NK 1 receptor binding (method of Heuillet et al.); details: FIG. 8
T2 construct: human NK1 tachykinin receptor in the astrocytoma cell line U 373 MG; endogenous in cells; host or cells: U 373 MG human astrocytoma cells (per the cited method)
T2 sequence (P25103 whole entry): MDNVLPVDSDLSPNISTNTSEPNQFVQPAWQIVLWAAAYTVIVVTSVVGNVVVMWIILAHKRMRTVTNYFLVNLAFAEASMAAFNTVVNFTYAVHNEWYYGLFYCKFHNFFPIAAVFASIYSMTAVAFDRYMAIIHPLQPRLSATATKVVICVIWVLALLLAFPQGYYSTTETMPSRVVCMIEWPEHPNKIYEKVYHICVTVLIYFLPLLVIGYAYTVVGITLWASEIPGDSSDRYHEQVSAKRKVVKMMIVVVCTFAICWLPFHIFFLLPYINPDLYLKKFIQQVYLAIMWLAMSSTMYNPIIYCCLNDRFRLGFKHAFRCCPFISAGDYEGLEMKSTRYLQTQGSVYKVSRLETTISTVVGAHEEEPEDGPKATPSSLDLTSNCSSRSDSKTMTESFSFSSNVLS
Protocol: Tritoqualine has been tested on the NK 1 receptor according to the method described by Heuillet et al., Characterization of a human NK1 tachykinin receptor in the astrocytoma cell line U 373 MG. Heuillet E et al. Neurochem. 1993 March.

histidine decarboxylase = target: T3, histidine decarboxylase (Homo sapiens, UniProt P19113); details: known anti-allergic activity; cited from earlier work
T3 sequence (P19113 1-662): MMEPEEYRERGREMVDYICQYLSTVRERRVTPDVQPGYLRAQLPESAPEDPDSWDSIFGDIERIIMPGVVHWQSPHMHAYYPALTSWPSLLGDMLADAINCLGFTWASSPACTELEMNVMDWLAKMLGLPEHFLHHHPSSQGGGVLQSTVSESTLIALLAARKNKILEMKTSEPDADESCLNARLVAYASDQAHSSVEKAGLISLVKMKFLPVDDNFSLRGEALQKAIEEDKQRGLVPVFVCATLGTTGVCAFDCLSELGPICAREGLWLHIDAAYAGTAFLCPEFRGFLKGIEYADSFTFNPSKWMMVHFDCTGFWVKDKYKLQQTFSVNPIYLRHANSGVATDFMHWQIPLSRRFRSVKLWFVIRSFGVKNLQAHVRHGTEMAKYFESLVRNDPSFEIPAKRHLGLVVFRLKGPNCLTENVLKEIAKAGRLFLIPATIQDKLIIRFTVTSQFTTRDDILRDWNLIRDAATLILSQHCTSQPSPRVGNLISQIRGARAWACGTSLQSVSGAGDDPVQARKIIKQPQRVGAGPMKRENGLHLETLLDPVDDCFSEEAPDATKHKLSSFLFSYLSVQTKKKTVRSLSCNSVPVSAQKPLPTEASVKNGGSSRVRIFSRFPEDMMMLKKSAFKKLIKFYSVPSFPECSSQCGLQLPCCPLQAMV

effect of Inh172 on cell potential (non-mutated CFTR; non-mutated epithelial cells, apical side): completely blocks
effect of Inh172 on cell potential (non-mutated CFTR; non-mutated lacrimal gland epithelial cells (second experiment)): completely blocks
Compound: O=C(O)c1ccc(C=C2SC(=S)N(c3cccc(C(F)(F)F)c3)C2=O)cc1 [Inh172]

affinity (percent inhibition) on NK 1 receptor (NK 1 receptor): 97%
EC50 (non-mutated CFTR; apical pole, FIG. 2, read-out: EC50 activity, apical pole): 3.42 µM
EC50 (non-mutated CFTR; basal pole, FIG. 3, read-out: EC50, basal pole): 4.87 µM
short circuit current differential after addition of tritoqualine (non-mutated CFTR; non-mutated epithelial cells, apical side, increases from 16): more than 20 μA/cm^2
short circuit current differential after addition of tritoqualine (non-mutated CFTR; non-mutated lacrimal gland epithelial cells, printed 'apical side' (second experiment), increases from 6.5): more than 7.5 μA/cm^2
Compound: CCOc1c(N)c2c(c(OCC)c1OCC)C(C1c3c(cc4c(c3OC)OCO4)CCN1C)OC2=O (stereo not drawn) [tritoqualine, AMINO-7 TRIETHOXY-4,5,6 OXO-1 DIHYDRO-1,3 ISOBENZOFURANNYL-3)-1METHOXY-8METHYL-2METHYLENEDIOXY-6,7TETRAHYDRO-,2,3,4ISOQUINOLINE]
degranulation after substance P in presence of tritoqualine (basophils; tritoqualine 10 pmoles (FIG. 10: 10 μM), then substance P, after 30 minutes, as with the negative control): around 7%
solubility in benzene and acetone ([1]; benzene and acetone): sparingly soluble
solubility in water ([1]; water): Insoluble
inhibitory action on histidine decarboxylase (histidine decarboxylase): very weak

Compound: substance P: NK 1 agonist (supplier Sigma-Aldrich) (RPKPQQFFGLM-NH2; UniProt P20366 58-68, looked up)
CD63 present on the basophil (degranulation) (basophils; substance P at 10 μmoles, basophils of 2 patients): 70%
